One may read the IC50 as the concentration that gives 50% inhibition. As usually defined, the logD is the decadic logarithm of the distribution of all forms, ionised or not, between an organic phase and buffer at a given pH. Higher therefore signals higher lipophilicity. Usually Kd stands for a measure of binding affinity in units of concentration.

One molecule from ChEMBL document CHEMBL5042544, “Discovery of a Potent and Selective ATAD2 Bromodomain Inhibitor with Antiproliferative Activity in Breast Cancer Models” (J Med Chem, 2022) can be followed below.

Some results are limits rather than exact numbers.

Series [1] has as its target Bromodomain-containing protein 9 (Homo sapiens) (UniProt Q9H8M2). Put plainly: Binding affinity to human BRD9 bromodomain assessed as residual activity at 300 nM by BROMOscan method relative to control.
The target in series [2] is T1, ATPase family AAA domain-containing protein 2 (Homo sapiens, UniProt Q6PL18).
T1 sequence (Q6PL18 whole entry): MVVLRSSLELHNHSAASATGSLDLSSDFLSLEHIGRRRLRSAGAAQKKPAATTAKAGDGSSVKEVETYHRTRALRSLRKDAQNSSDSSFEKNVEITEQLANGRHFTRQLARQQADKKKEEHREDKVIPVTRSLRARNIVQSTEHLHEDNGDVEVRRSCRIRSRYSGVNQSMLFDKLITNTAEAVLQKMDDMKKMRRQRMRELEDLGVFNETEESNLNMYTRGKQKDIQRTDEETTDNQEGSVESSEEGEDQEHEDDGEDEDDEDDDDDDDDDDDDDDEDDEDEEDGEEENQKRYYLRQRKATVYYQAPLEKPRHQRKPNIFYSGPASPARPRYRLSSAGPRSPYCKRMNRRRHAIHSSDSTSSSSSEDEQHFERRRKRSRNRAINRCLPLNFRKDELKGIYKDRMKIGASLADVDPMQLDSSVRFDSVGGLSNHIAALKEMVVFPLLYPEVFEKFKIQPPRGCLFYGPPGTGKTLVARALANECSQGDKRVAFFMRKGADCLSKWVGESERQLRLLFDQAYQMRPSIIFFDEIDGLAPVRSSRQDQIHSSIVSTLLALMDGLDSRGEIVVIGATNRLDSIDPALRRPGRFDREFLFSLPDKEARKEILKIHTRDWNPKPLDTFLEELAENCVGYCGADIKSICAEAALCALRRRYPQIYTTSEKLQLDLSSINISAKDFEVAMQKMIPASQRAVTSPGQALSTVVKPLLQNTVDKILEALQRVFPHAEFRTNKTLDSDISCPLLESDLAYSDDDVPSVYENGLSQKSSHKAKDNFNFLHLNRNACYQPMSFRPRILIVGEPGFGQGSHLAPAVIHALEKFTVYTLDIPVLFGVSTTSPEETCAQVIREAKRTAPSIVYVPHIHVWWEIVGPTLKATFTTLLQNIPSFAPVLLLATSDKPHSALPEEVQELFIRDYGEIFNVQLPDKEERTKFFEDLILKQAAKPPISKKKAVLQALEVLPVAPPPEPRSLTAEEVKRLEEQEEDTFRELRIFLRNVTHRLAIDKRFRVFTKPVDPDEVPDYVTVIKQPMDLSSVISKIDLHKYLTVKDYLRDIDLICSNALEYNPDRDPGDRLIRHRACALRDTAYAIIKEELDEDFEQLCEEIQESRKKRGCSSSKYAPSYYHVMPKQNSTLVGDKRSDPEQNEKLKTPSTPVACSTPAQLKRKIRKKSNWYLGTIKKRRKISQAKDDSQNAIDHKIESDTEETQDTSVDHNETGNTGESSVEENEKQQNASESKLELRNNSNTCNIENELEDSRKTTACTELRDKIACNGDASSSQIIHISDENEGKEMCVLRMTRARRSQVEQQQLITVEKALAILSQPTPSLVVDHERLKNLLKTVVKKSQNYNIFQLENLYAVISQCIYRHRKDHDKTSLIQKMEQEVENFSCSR
Description: Inhibition of GST-ATAD2 BD (951 to 1132 residues) (unknown origin) expressed in Escherichia coli BL21 (DE3) and biotinylated tetra-acetylated histone H4 peptides as substrate incubated for 30 mins by TR-FRET assay.

Series [3] deals with Transcription intermediary factor 1-alpha (Homo sapiens) (UniProt O15164). Put plainly: Binding affinity to human TRIM24 bromodomain assessed as residual activity at 300 nM by BROMOscan method relative to control.
Chain of Transcription intermediary factor 1-alpha (Homo sapiens) (O15164 whole entry, the tested form may be a part): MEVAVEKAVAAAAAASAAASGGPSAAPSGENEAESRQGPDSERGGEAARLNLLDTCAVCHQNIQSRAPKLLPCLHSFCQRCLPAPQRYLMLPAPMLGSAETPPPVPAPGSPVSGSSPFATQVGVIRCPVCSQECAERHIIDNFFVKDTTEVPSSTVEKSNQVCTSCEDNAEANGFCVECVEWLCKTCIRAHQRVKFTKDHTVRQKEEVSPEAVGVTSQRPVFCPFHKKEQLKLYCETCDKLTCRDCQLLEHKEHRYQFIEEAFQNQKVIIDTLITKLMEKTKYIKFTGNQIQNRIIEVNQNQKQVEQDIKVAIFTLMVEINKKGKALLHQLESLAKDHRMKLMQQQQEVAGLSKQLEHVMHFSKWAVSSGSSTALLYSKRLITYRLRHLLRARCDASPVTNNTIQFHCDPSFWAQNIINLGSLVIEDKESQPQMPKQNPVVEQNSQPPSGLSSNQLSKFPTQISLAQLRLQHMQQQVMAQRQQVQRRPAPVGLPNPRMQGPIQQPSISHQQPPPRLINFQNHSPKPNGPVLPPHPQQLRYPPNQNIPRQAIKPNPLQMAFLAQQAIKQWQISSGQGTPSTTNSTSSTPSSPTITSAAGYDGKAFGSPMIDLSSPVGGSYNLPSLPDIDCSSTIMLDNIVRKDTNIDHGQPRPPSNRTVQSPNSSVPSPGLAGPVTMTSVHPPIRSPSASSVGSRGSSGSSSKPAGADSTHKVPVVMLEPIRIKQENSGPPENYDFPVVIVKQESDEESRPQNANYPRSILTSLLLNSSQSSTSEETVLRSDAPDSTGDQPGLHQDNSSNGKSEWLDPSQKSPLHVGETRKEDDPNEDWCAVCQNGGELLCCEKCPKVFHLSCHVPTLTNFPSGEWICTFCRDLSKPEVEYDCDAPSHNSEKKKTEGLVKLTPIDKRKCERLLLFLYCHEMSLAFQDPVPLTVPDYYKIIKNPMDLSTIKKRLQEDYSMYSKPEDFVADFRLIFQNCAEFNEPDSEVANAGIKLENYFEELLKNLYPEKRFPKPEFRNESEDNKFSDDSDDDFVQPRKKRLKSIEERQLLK
For series [4], the target named is T2, Bromodomain-containing protein 4 (Homo sapiens, UniProt O60885). Description: Displacement of Halo-tagged Histone H3.3 from Nanoluc-BRD4 BD1/BD2 (44 to 460 residues) (unknown origin) transfected in human HCT116 cells incubated for 18 hrs by NanoBRET assay. It is filed as cell-based, HCT-116. Background: BRET reads energy transfer from a luciferase to a nearby fluorophore.

For a further series, the system named is T47D. Description: Antiproliferative activity against human T-47D cells expressing ATAD2 assessed as inhibition of colony formation at 0.01 to 10 uM measured after 14 to 21 days by AlamarBlue staining based colony formation assay. Conditions: dose 0.01-10 µM, time 14-21 day. It is filed as functional, cell-based. (In general: Resazurin is reduced to fluorescent resorufin, in cell work by metabolically active cells.)

Series [5] has as its target Bromodomain adjacent to zinc finger domain protein 2B (Homo sapiens) (UniProt Q9UIF8). Description: Binding affinity to human BAZ2B bromodomain assessed as residual activity at 300 nM by BROMOscan method relative to control.
Series [6] concerns the target T1, ATPase family AAA domain-containing protein 2. Put plainly: Displacement of Halo-tagged Histone H3.3 from Nanoluc-ATAD2 BD (962 to 1119 residues) (unknown origin) transfected in human HCT116 cells incubated for 18 hrs in presence of efflux inhibitor reversan by NanoBRET assay. The series is classed as cell-based, HCT-116.
In series [7] the target is Bromodomain adjacent to zinc finger domain protein 2A (Homo sapiens) (UniProt Q9UIF9). Description: Binding affinity to human BAZ2A bromodomain assessed as residual activity at 300 nM by BROMOscan method relative to control.
The nature of series [8]: Distribution coefficient, logD of compound at pH 7.4. The series is classed as physicochemical. Conditions: octanol/water.
Series [9] has as its target T3, Protein polybromo-1 (Homo sapiens, UniProt Q86U86). Description: Binding affinity to human PBRM1 bromodomain 5 assessed as residual activity at 300 nM by BROMOscan method relative to control.
For another series, the system named is EVSA-T. Description: Antiproliferative activity against human EVSA-T cells expressing ATAD2 assessed as inhibition of colony formation at 0.01 to 10 uM measured after 14 to 21 days by AlamarBlue staining based colony formation assay. The series is classed as functional, cell-based. The settings on record: dose 0.01-10 µM, time 14-21 day.
The target of series [10] is SWI/SNF-related matrix-associated actin-dependent regulator of chromatin subfamily A member 4 (Homo sapiens) (UniProt P51532). Description: Binding affinity to human SMARCA4 bromodomain assessed as residual activity at 300 nM by BROMOscan method relative to control.
Series [11] concerns the target Histone acetyltransferase KAT2B (Homo sapiens, UniProt Q92831). Put plainly: Binding affinity to human PCAF bromodomain assessed as dissociation constant by BROMOscan method.
Series [12] has as its target T2, Bromodomain-containing protein 4. Description: Binding affinity to human BRD4 bromodomain 2 assessed as residual activity at 300 nM by BROMOscan method relative to control.
Series [13] has the same target. Put plainly: Binding affinity to human BRD4 bromodomain 1 assessed as residual activity at 300 nM by BROMOscan method relative to control.
Series [14] concerns the target T3, Protein polybromo-1. Description: Binding affinity to human PBRM1 bromodomain 5 assessed as dissociation constant by BROMOscan method.
For series [15], the target named is ATPase family AAA domain-containing protein 2B (Homo sapiens) (UniProt Q9ULI0). Put plainly: Binding affinity to human ATAD2B bromodomain assessed as residual activity at 300 nM by BROMOscan method relative to control.
Chain of ATPase family AAA domain-containing protein 2B (Homo sapiens) (Q9ULI0 whole entry, the tested form may be a part): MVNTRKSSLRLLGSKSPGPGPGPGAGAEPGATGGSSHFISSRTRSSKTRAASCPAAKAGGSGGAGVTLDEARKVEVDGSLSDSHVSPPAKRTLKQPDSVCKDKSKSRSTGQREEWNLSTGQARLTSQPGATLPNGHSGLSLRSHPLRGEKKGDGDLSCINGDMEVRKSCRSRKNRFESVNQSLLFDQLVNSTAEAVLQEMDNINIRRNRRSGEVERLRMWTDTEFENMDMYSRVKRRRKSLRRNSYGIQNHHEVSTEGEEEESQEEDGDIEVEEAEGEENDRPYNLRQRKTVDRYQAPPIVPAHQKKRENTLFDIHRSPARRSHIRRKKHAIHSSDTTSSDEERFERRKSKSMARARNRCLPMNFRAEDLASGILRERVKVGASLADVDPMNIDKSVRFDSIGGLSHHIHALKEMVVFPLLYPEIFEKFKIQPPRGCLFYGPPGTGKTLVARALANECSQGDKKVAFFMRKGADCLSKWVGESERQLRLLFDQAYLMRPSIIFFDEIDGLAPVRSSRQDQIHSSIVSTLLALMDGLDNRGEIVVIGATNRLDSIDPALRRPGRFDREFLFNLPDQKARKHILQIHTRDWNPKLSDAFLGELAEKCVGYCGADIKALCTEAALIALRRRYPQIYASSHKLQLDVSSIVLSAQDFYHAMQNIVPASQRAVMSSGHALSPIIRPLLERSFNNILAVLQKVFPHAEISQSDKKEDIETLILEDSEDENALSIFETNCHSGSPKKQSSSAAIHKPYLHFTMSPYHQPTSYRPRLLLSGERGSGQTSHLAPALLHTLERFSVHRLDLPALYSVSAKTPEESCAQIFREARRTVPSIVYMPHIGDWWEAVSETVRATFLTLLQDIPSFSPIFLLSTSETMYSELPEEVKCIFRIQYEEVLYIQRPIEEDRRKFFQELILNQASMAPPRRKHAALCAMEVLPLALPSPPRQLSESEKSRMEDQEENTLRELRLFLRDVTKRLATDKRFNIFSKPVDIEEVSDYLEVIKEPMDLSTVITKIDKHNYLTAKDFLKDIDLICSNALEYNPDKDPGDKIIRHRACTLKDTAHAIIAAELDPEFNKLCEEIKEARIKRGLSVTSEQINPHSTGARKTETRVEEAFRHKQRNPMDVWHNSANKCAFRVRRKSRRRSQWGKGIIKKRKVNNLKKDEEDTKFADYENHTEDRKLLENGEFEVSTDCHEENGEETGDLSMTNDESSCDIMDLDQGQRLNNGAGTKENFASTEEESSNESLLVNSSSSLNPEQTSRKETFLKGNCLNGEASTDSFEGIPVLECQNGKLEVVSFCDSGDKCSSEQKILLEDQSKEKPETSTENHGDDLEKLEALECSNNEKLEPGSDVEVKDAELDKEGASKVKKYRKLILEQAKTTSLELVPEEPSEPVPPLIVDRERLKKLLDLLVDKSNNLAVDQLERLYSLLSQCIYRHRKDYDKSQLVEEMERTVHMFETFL
In series [16] the target is SWI/SNF-related matrix-associated actin-dependent regulator of chromatin subfamily A member 2 (Homo sapiens, UniProt P51531). Description: Binding affinity to human SMARCA2 bromodomain assessed as residual activity at 300 nM by BROMOscan method relative to control.

T3 sequence (Q86U86 whole entry): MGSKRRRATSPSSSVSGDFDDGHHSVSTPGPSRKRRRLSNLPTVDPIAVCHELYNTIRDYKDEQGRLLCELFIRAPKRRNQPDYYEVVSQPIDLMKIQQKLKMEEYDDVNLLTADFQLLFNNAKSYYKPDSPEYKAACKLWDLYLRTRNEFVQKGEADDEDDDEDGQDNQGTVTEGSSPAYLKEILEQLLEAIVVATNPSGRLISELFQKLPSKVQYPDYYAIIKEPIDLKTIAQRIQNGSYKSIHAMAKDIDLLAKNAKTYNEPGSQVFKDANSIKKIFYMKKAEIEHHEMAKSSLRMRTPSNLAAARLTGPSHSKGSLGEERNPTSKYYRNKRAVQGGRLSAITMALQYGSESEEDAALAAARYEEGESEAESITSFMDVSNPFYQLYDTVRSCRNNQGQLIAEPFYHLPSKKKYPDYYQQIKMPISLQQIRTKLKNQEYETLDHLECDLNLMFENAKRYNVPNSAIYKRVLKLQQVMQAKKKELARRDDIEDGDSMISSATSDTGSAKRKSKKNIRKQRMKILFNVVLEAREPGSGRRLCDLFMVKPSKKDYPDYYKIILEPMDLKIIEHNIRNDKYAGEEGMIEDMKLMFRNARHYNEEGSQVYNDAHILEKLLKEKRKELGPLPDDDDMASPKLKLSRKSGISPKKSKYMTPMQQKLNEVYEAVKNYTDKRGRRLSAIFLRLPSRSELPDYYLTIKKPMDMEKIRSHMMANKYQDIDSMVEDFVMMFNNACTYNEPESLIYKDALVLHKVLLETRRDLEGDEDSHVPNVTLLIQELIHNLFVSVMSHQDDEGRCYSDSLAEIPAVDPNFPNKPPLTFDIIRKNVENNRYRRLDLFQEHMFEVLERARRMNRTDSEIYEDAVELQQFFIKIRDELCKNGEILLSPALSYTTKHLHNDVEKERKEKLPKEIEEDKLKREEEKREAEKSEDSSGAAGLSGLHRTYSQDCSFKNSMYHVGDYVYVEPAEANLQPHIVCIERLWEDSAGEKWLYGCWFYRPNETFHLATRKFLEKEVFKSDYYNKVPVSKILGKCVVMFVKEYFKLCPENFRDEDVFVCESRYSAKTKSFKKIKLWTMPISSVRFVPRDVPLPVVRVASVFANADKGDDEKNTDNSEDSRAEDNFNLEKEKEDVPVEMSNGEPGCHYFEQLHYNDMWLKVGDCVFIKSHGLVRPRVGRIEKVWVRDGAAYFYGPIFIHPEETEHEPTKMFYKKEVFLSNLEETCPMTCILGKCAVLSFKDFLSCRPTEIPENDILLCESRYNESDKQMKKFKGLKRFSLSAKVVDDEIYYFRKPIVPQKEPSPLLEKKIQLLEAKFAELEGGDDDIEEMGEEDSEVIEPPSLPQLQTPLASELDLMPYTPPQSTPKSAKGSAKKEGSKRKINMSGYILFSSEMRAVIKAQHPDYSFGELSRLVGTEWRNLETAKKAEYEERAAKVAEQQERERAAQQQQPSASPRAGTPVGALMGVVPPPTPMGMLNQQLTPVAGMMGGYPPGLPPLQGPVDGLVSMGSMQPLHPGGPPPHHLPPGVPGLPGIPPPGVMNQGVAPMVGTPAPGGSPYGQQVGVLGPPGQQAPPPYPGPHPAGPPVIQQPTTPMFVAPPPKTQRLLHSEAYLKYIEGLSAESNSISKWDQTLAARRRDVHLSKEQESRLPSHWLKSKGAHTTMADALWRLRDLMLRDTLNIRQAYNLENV
Chain of Bromodomain-containing protein 9 (Homo sapiens) (Q9H8M2 whole entry, the tested form may be a part): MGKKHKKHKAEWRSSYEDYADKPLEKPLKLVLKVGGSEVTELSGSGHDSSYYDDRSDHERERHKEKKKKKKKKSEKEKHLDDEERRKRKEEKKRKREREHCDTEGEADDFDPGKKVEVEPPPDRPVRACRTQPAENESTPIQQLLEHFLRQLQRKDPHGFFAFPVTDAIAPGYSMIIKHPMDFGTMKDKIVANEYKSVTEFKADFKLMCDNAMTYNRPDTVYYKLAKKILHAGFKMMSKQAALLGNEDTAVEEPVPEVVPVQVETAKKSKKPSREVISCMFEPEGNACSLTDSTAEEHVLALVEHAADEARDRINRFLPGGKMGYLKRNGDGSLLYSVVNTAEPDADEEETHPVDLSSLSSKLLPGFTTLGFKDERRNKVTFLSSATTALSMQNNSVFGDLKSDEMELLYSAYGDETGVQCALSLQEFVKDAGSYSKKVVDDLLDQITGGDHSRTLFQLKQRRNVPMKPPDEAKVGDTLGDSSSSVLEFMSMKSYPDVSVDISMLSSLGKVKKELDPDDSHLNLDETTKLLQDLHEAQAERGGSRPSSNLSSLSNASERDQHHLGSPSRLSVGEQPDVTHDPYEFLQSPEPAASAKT

Regarding `Cc1nnc2c(NC3CCN(CC(C)(C)F)CC3)cc(C(=O)N3[C@@H]4c5ccccc5C[C@H]3C(=O)N[C@@H]4C(C)C)nn12`, the Activity was 64% in series [1]; 86% in series [3]; “Dose-Dependent Effect” with T47D; 75% in series [5]; 82% in series [7]; 52% on Protein polybromo-1 [9]. Moreover, the Activity result with EVSA-T is “Dose-Dependent Effect”; in [10], 80%; in series [12] it was 73%; in [13], 86%; in series [15], 0%; in [16], 36%. Further, the IC50 in series [2] is 7 nM; in series [4], 10000 nM; in [6], 79.4 nM. Moreover, the logD in series [8] stood at 3. Further, the equilibrium dissociation constant (Kd) (in series [11]; on Protein polybromo-1 [14]) was > 316 nM each time.
